From ChEMBL document CHEMBL5537153, “Modifications to 1-(4-(2-Bis(4-fluorophenyl)methyl)sulfinyl)alkyl Alicyclic Amines That Improve Metabolic Stability and Retain an Atypical DAT Inhibitor Profile” (J Med Chem, 2024) come the findings set out here.

Broadly, the Ki is the dissociation constant of the complex between target and ligand, obtained from inhibition or displacement. Low readings indicate higher affinity, high ones lower affinity.

Data set [1] in a line: Metabolic stability of the compound in mouse liver microsomes assessed as parent compound remaining at 10 uM measured after 60 mins in presence of NADPH regenerating system by LC/MS analysis. The class given is ADME, Microsome. The settings on record: read-out: Stability. (Liver microsomes are vesicles of endoplasmic reticulum, rich in cytochrome P450 enzymes.)
The target in data set [2] is Sodium-dependent dopamine transporter (Rattus norvegicus, UniProt P23977). In words: Displacement of [3H]WIN35428 from DAT in Sprague-Dawley rat striatum incubated for 120 mins by scintillation counting analysis. Format: tissue-based. A general note: Displacement assays read how much labelled ligand stays bound in the presence of the test substance.
The species named for data set [3] is Rattus norvegicus. Briefly: Selectivity ratio of Ki for SERT in Sprague-Dawley rat brainstem to Ki for DAT in Sprague-Dawley rat striatum.
Data set [4] has as its target Sodium-dependent serotonin transporter (Rattus norvegicus, UniProt P31652). Briefly: Displacement of [3H]citalopram from SERT in Sprague-Dawley rat brainstem incubated for 60 mins by scintillation counting analysis. The class given is tissue-based.
A short description of data set [5]: Induction of behavioural effects in wild type C57BL/6J mouse assessed as locomotor activity at 3 to 30 mg/kg, ip measured every 10 mins for 3 hrs by open field test. Format: toxicity, organism-based. The settings on record: in vivo, dose 3-30 mg/kg.
For data set [6], the target named is T1, Sodium-dependent dopamine transporter (Homo sapiens, UniProt Q01959). In words: Displacement of [3H]WIN35428 from wild type human DAT expressed in COS-7 cells incubated for 1.5 hrs by scintillation counting analysis. Format: cell-based.
Data set [7] has as its target T1, Sodium-dependent dopamine transporter. Briefly: Inhibition of [3H]dopamine uptake from wild type human DAT expressed in COS-7 cells preincubated for 30 mins followed by [3H]dopamine addition and measured after 5 mins by beta scintillation counting analysis. Format: cell-based.
Data set [8] in a line: Displacement of [3H]nisoxetine from NET in Sprague-Dawley rat prefrontal cortex incubated for 180 mins by microbeta microscintillation counting analysis. The class given is tissue-based.
A short description of data set [9]: Displacement of [3H]WIN35428 from human DAT Y156F mutant expessed in COS-7 cells incubated for 1.5 hrs by beta scintillation counting analysis. The class given is cell-based.
A short description of data set [10]: Metabolic stability of the compound in rat liver microsomes assessed as parent compound remaining at 10 uM measured after 60 mins in presence of NADPH regenerating system by LC/MS analysis. The settings on record: for Stability: microsomes, 1 h, 10 µM. Format: ADME, Microsome.
A short description of data set [11]: Inhibition of [3H]dopamine uptake from human DAT Y335A mutant expressed in COS-7 cells preincubated for 30 mins followed by [3H]dopamine addition and measured after 10 mins by beta scintillation counting analysis. Format: cell-based.
Data set [12] can be described thus: Induction of behavioural effects in wild type C57BL/6J mouse assessed as increase in locomotor activity at 30 mg/kg, ip measured after 20 mins by open field test. The class given is toxicity, organism-based. The note with it: in vivo.

Sequence of Sodium-dependent dopamine transporter (Rattus norvegicus, UniProt P23977) (P23977 whole entry): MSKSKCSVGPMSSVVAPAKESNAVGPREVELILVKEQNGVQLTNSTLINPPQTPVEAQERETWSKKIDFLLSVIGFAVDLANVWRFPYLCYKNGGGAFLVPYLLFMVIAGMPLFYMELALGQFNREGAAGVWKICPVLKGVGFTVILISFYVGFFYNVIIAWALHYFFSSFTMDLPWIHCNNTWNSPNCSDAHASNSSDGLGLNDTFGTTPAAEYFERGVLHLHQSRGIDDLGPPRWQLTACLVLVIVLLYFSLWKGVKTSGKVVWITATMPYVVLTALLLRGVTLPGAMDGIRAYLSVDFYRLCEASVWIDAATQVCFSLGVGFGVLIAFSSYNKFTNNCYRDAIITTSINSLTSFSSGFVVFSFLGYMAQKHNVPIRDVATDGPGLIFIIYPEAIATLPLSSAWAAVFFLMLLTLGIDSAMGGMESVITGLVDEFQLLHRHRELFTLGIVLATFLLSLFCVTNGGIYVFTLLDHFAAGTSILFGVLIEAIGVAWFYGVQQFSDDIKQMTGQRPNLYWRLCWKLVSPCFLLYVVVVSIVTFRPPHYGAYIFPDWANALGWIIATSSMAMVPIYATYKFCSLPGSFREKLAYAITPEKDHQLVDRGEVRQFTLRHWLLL
Sequence of Sodium-dependent serotonin transporter (P31652 whole entry): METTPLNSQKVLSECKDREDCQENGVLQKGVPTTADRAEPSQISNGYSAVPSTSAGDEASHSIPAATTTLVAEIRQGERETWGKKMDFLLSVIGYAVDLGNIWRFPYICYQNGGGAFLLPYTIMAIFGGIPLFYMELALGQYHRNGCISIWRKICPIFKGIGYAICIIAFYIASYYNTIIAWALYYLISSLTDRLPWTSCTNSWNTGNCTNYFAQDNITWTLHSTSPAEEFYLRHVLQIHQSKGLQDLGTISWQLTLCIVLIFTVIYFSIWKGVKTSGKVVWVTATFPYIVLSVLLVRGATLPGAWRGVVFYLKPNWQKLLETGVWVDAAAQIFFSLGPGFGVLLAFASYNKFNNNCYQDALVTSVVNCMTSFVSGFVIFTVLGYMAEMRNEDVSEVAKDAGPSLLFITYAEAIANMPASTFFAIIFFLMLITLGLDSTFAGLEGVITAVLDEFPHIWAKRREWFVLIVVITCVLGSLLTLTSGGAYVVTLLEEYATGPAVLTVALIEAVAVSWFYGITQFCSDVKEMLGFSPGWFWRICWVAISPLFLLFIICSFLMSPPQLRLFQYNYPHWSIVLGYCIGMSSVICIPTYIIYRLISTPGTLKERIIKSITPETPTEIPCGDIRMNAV
T1 sequence (Q01959 whole entry): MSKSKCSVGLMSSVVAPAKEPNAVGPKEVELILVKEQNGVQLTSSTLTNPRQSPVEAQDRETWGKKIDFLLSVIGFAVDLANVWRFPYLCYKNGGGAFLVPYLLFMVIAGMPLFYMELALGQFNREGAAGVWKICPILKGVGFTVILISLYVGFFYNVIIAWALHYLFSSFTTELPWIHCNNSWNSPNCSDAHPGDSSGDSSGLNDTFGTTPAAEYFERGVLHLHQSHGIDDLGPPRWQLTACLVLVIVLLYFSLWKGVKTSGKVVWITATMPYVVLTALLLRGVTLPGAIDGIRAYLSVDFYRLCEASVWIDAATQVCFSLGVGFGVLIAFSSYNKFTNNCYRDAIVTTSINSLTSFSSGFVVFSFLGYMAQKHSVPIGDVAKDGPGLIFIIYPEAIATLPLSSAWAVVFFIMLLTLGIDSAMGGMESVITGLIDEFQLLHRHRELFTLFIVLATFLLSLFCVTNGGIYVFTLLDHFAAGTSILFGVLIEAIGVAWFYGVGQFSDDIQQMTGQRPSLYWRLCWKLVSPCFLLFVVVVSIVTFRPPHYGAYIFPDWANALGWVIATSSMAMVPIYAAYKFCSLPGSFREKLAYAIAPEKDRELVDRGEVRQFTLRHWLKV

As for `CC(O)CN1C(C)CN(CCSC(c2ccc(F)cc2)c2ccc(F)cc2)CC1C` (configuration not stated), the remaining at 1 h, 10 µM in [1] turned out to be 68%.

Turning to `CC(O)CN1CCC(CC[S+]([O-])C(c2ccc(F)cc2)c2ccc(F)cc2)CC1` (configuration not stated), the Ki is 180 nM in data set [2]; 16100 nM in [4]; 355 nM in data set [6]; 949 nM in data set [7]; over 100000 nM in data set [8]; 2360 nM in [9]. Further, the Ratio Ki in data set [3] came out at 89. The Activity result in [5] is “Non-Toxic”. Also, in [10], the Stability is 100%.

Turning to `[O-][S+](CCN1CCCN(c2ncccn2)CC1)C(c1ccc(F)cc1)c1ccc(F)cc1` (configuration not stated), the inhibitory constant (Ki) in data set [2] was 24800 nM; in data set [4] it was 28000 nM. Also, the Ratio Ki in [3] came out at 1.

With `CC(O)CN1CCC(CCSC(c2ccc(F)cc2)c2ccc(F)cc2)CC1` (configuration not stated), the values for the Ki in data set [2] and in data set [4] were 67 nM and 1920 nM, respectively. For the same compound, the Ratio Ki in data set [3] was determined as 29.

With `OC(Cc1ccc(F)cc1)CN1CCCN(CCSC(c2ccc(F)cc2)c2ccc(F)cc2)CC1` (configuration not stated), the Ki in data set [2] was determined as 14.3 nM; in data set [4], 504 nM. Also, the Ratio Ki in [3] was determined as 35.

Turning to `C[C@@H](O)CN1CCC(CCSC(c2ccc(F)cc2)c2ccc(F)cc2)CC1`, the inhibitory constant (Ki) was determined as 84.5 nM in data set [2] and 759 nM in data set [4]. Besides, the Ratio Ki in data set [3] was 9.

Consider `COc1ccc(CC(O)CN2CCCN(CCSC(c3ccc(F)cc3)c3ccc(F)cc3)CC2)cc1` (configuration not stated), for which the Ki in data set [2] is 16.5 nM; in [4], 360 nM. In data set [3], the Ratio Ki worked out at 22.

`CC(O)CN1CCCN(CC[S+]([O-])C(c2ccc(F)cc2)c2ccc(F)cc2)CC1` (configuration not stated): the values for the Ki in data set [2] and in [4] were 417 nM and 26000 nM, respectively. Also, the Ratio Ki in [3] came out at 62.

For `C[C@@H](O)CN1CCC(CC[S+]([O-])C(c2ccc(F)cc2)c2ccc(F)cc2)CC1` (some centres not stated), the inhibition constant Ki stood at 276 nM in data set [2] and 34800 nM in data set [4]. For the same compound, the Ratio Ki in data set [3] is 126.

Turning to `Fc1ccc(C(SCCN2CCN(c3ccncc3)CC2)c2ccc(F)cc2)cc1`, the inhibition constant (Ki) was found to be 91.6 nM in [2]; 4050 nM in data set [11]; 136 nM in data set [4]; 106 nM in data set [6]; 326 nM in data set [7]; 393 nM in [9]. Further, the Ratio Ki in [3] turned out to be 1.

As to `[O-][S+](CCN1CCN(c2ncccn2)CC1)C(c1ccc(F)cc1)c1ccc(F)cc1` (configuration not stated), the figures for the inhibition constant Ki in data set [2] and in data set [4] were 22100 nM and 46300 nM, respectively. Further, the Ratio Ki in data set [3] turned out to be 2.

In the case of `CC(O)CN1CCN(CC[S+]([O-])C(c2ccc(F)cc2)c2ccc(F)cc2)CC1` (configuration not stated), the Ki in [11] amounted to 14400 nM; in [6], 1020 nM; in [7], 917 nM; in data set [9], 7560 nM. The Activity entry in data set [5] is recorded as “Non-Toxic”. Moreover, in [10] (liver microsomes, read-out: Stability), the remaining at 1 h, 10 µM was found to be 72%.

For the compound `CC(O)CN1CCN(CCSC(c2ccc(F)cc2)c2ccc(F)cc2)CC1` (configuration not stated), in data set [1], the remaining at 1 h, 10 µM turned out to be 6%.

`[O-][S+](CCC1CCN(CC(O)Cc2ccccc2)CC1)C(c1ccc(F)cc1)c1ccc(F)cc1` (configuration not stated): the results for the inhibition constant (Ki) in [2] and in data set [4] were 2.64 nM and 818 nM, respectively. The Ratio Ki in [3] worked out at 310. In addition, the Stability in data set [10] came out at 68%.

For `C[C@H](O)CN1CCC(CC[S+]([O-])C(c2ccc(F)cc2)c2ccc(F)cc2)CC1` (some centres not stated), the results for the inhibitory constant (Ki) in data set [2] and in data set [4] were 382 nM and 14300 nM, respectively. The Ratio Ki in data set [3] was 37.

As for `COc1ccc(CC(O)CN2CCCN(CC[S+]([O-])C(c3ccc(F)cc3)c3ccc(F)cc3)CC2)cc1` (configuration not stated), the figures for the Ki in data set [2] and in data set [4] were 33.4 nM and 2670 nM, respectively. Moreover, in [3], the Ratio Ki was found to be 80. Also, the remaining at 1 h, 10 µM in data set [1] was found to be 20%.

`Fc1ccc(C(SCCN2CCN(c3ncccn3)CC2)c2ccc(F)cc2)cc1`: the values for the inhibitory constant (Ki) in data set [2] and in [4] were 725 nM and 923 nM, respectively. In addition, in data set [3], the Ratio Ki turned out to be 1.

As for `[O-][S+](CCN1CCN(c2ccncc2)CC1)C(c1ccc(F)cc1)c1ccc(F)cc1` (configuration not stated), the inhibition constant (Ki) in data set [2] stood at 2480 nM; in data set [4], 3460 nM. Moreover, the Ratio Ki in data set [3] was 1.

For `[O-][S+](CCN1CCN(CC(O)Cc2ccccc2)CC1)C(c1ccc(F)cc1)c1ccc(F)cc1` (configuration not stated), the Activity result in [12] is listed as “Toxic”. Moreover, the Ki in [11] was determined as 537 nM; in data set [6] it was 10.7 nM; in data set [7] it was 0.806 nM; in data set [9] it was 116 nM. In [1], the remaining at 1 h, 10 µM was 34%.

As for `CC(F)CN1[C@H](C)CN(CC[S+]([O-])C(c2ccc(F)cc2)c2ccc(F)cc2)C[C@@H]1C` (some centres not stated), the Ki in [2] is 1050 nM; in data set [4] it was over 100000 nM. The Ratio Ki in data set [3] was over 95.

For the compound `CC(F)CN1[C@H](C)CN(CCSC(c2ccc(F)cc2)c2ccc(F)cc2)C[C@@H]1C` (some centres not stated), the Ki was 135 nM in data set [2] and 13400 nM in [4]. Further, the Ratio Ki in data set [3] amounted to 99.

For the compound `CC(O)CN1CCCN(CCSC(c2ccc(F)cc2)c2ccc(F)cc2)CC1` (configuration not stated), the Ki stood at 63.4 nM in data set [2]; 3300 nM in data set [11]; 2430 nM in data set [4]; 80 nM in [6]; 163 nM in data set [7]; 232 nM in data set [9]. In addition, the Ratio Ki in data set [3] came out at 38. Besides, the remaining at 1 h, 10 µM in [1] stood at 12%.

With `Fc1ccc(C(SCCN2CCCN(c3ncccn3)CC2)c2ccc(F)cc2)cc1`, the inhibition constant (Ki) in data set [2] amounted to 508 nM; in [4] it was 732 nM. Further, the Ratio Ki in data set [3] amounted to 1.

`C[C@H](O)CN1CCC(CCSC(c2ccc(F)cc2)c2ccc(F)cc2)CC1`: the inhibition constant Ki in data set [2] was determined as 34.5 nM; in data set [4] it was 1200 nM. Further, in data set [3], the Ratio Ki was determined as 35.

As to `OC(Cc1ccccc1)CN1CCCN(CCSC(c2ccc(F)cc2)c2ccc(F)cc2)CC1` (configuration not stated), the inhibition constant (Ki) is 7.23 nM in data set [2] and 288 nM in data set [4]. Further, the Ratio Ki in [3] came to 40.

`COc1ccc(N2CCN(CC[S+]([O-])C(c3ccc(F)cc3)c3ccc(F)cc3)CC2)cc1` (configuration not stated): the inhibition constant Ki in data set [2] was 6300 nM; in data set [4], 18100 nM. Moreover, the Ratio Ki in data set [3] is 3.

Consider `COc1ccc(N2CCN(CCSC(c3ccc(F)cc3)c3ccc(F)cc3)CC2)cc1`, for which the inhibition constant Ki in data set [2] worked out at 662 nM; in data set [4], 780 nM. In addition, the Ratio Ki in data set [3] is 1.

As to `[O-][S+](CCN1CCCN(CC(O)Cc2ccc(F)cc2)CC1)C(c1ccc(F)cc1)c1ccc(F)cc1` (configuration not stated), the inhibitory constant (Ki) in data set [2] is 6.81 nM; in [4], 2150 nM. Besides, in [3], the Ratio Ki was found to be 316. Also, the remaining at 1 h, 10 µM in data set [1] was found to be 15%.

On to `[O-][S+](CCN1CCCN(CC(O)Cc2ccccc2)CC1)C(c1ccc(F)cc1)c1ccc(F)cc1` (configuration not stated), for which the inhibition constant (Ki) in [2] was found to be 8.37 nM; in data set [11] it was 1440 nM; in data set [4], 3520 nM; in [6] it was 32 nM; in data set [7], 40 nM; in data set [8], 4040 nM. The compound also showed a Ki in data set [9] of 184 nM. In addition, the Ratio Ki in data set [3] was determined as 421. Also, in [5], the Activity entry is listed as “Non-Toxic”. The remaining at 1 h, 10 µM in [1] amounted to 0%.

As for `OC(Cc1ccccc1)CN1CCC(CCSC(c2ccc(F)cc2)c2ccc(F)cc2)CC1` (configuration not stated), the figures for the inhibition constant (Ki) in data set [2] and in data set [4] were 5.83 nM and 201 nM, respectively. Further, the Ratio Ki in data set [3] worked out at 34.
